What all share (type): cell-based
Holding throughout (details): Gemcitabine alone, low dose 15 nM, 48 hours

In data set [1] the test system is Panc-1-Wt pancreatic cancer cells. The experiment in a line: Cell survival, CCK8 kit. The procedure: (§1) For cell proliferation, cytotoxicity, and cell survival measurements, […] were seeded in 96 wells plates in 100 μL of DMEM medium. Cells were incubated for 48H hours at 37° C. with an anti-STIM1 antibody targeting the C terminal of STIM1 (CDN3H4, Santa Cruz; HPA011088 or HPA012123 clones, Sigma). Cell proliferation was evaluated using the Cell Titer kit proliferation assay (Promega). Cytotoxicity was evaluated using the Cell Tox green cytotoxicity assay (Promega) and cell survival measured using the CCK8 kit from Sigma. All these kits were used following manufacturer recommendations and using a plate reader
as §1, with “with 5 μg/ml of the” for “with an”, “Santa Cruz) alone, with 15 nM Gemcitabine alone” for “Santa Cruz; HPA011088”, “or with both 5 ug/ml of the anti-STIM1 clone CDN3H4 and 15 nM Gemcitabine. Relevant controls (isotype or/and DMSO treatments) were also realized.” for “or HPA012123 clones, Sigma).”
(In general: Formazan colour is commonly taken as a measure of viable cells.)

Data set [2] shares this test system. The data set can be described thus: Cell proliferation, Cell Titer kit proliferation assay. How it is done: as §1
as §1, with “with 5 μg/ml of the” for “with an”, “Santa Cruz) alone, with 15 nM Gemcitabine alone” for “Santa Cruz; HPA011088”, “or with both 5 ug/ml of the anti-STIM1 clone CDN3H4 and 15 nM Gemcitabine. Relevant controls (isotype or/and DMSO treatments) were also realized.” for “or HPA012123 clones, Sigma).”

Data set [3] has the same test system. The data set can be described thus: Cytotoxicity, Cell Tox green cytotoxicity assay. The procedure: as §1
as §1, with “with 5 μg/ml of the” for “with an”, “Santa Cruz) alone, with 15 nM Gemcitabine alone” for “Santa Cruz; HPA011088”, “or with both 5 ug/ml of the anti-STIM1 clone CDN3H4 and 15 nM Gemcitabine. Relevant controls (isotype or/and DMSO treatments) were also realized.” for “or HPA012123 clones, Sigma).”

1 compound from patent US20230063059A1, “SUBSTANCE INTERACTING WITH C TERMINAL FRAGMENT OF THE STIM1 FRACTION LOCALIZED TO THE PLASMA MEMBRANE OF THE CELLS, FOR ITS USE IN THE TREATMENT OF CANCERS, AND IN SCREENING AND DIAGNOSTIC METHODS” (UNIVERSITÉ DE BRETAGNE OCCIDENTALE - UBO, priority 2019, published 2023) can be followed below.

With `Nc1ccn([C@@H]2O[C@H](CO)[C@@H](O)C2(F)F)c(=O)n1` [Gemcitabine], the “survival of pancreatic cancer cells” value in data set [1] was “slightly but significantly reduce”. Moreover, the “proliferation of pancreatic cancer cells” value in data set [2] is “slightly but significantly reduce”. For the same compound, in data set [3], the cell cytotoxicity result is “without inducing cell cytotoxicity”.
